According to paper PMC9544596 (Journal of Clinical Pharmacology, 2022):

How the values were obtained:
[1] = tested on: Enterococcus spp.; test: Vancomycin MIC of cultured clinical isolates; type: cell-based
[2] = Population pharmacokinetic model of vancomycin

For CN[C@H](CC(C)C)C(=O)N[C@H]1C(=O)N[C@@H](CC(N)=O)C(=O)N[C@H]2C(=O)N[C@H]3C(=O)N[C@H](C(=O)N[C@H](C(=O)O)c4cc(O)cc(O)c4-c4cc3ccc4O)[C@H](O)c3ccc(c(Cl)c3)Oc3cc2cc(c3O[C@@H]2O[C@H](CO)[C@@H](O)[C@H](O)[C@H]2O[C@H]2C[C@](C)(N)[C@H](O)[C@H](C)O2)Oc2ccc(cc2Cl)[C@H]1O [vancomycin], the MIC50 ([1]; Enterococcus, read-out: MIC50 (min-max)) was 1 µg/mL, the “MIC50 (min-max)” value ([1]; patients without shock, 6 isolates) was 1 mg/L and the “MIC50 (min-max)” value ([1]; septic shock patients, 5 isolates) was 1 mg/L. For the same compound, the “CL, bootstrap of final model estimate” value ([2]; 1000 bootstrap replicates) was 1.23 L/h, the “Vd, bootstrap of final model estimate” value ([2]; 1000 bootstrap replicates) was 66.51 L and the “θ1, bootstrap of final model estimate” value ([2]; 1000 bootstrap replicates) was 1.00. For the same compound, the “Vd, final model estimate” value ([2]; Thai GFR not indexed to BSA final model) was 67.46 L.
